Assay results reported in PubChem BioAssay (NCI).
Where “and” joins values, the source holds several entries; their conditions need not be identical. Identical values can stand only once.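 Method: 48-hour compound exposure of cells in 96-well plates, five concentrations, linear interpolation of endpoints. The concentration for 50% growth inhibition is given as GI50. The concentration for full growth arrest is given as TGI.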

Experiments:
Test in all cases: growth of human tumour cells (NCI), 48 h
T-47D breast = test system: T-47D breast
NCI/ADR-RES ovarian = test system: NCI/ADR-RES ovarian
SK-MEL-5 melanoma = test system: SK-MEL-5 melanoma
NCI-H226 lung = test system: NCI-H226 lung
SNB-19 CNS = test system: SNB-19 CNS
HL-60(TB) leukemia = test system: HL-60(TB) leukemia
U251 CNS = test system: U251 CNS
SF-539 CNS = test system: SF-539 CNS
MDA-MB-435 = test system: MDA-MB-435
LOX IMVI melanoma = test system: LOX IMVI melanoma
CAKI-1 renal = test system: CAKI-1 renal
K-562 leukemia = test system: K-562 leukemia
ACHN renal = test system: ACHN renal

SMILES	TGI (T-47D breast) [µM]	TGI (NCI/ADR-RES ovarian) [µM]	TGI (SK-MEL-5 melanoma) [µM]	TGI (NCI-H226 lung) [µM]	TGI (SNB-19 CNS) [µM]	TGI (HL-60(TB) leukemia) [µM]	TGI (U251 CNS) [µM]	TGI (SF-539 CNS) [µM]	TGI (MDA-MB-435) [µM]	TGI (LOX IMVI melanoma) [µM]	TGI (CAKI-1 renal) [µM]	TGI (K-562 leukemia) [µM]	TGI (ACHN renal) [µM]	GI50 (T-47D breast)	GI50 (SK-MEL-5 melanoma)	GI50 (SNB-19 CNS)	GI50 (K-562 leukemia) [µM]
C/C=C/CC(C(=O)OCC)(N(C)C(=O)OC(C)(C)C)S(=O)(=O)c1ccc(C)cc1 (centres undefined)	> 100	> 100	> 100	> 100	> 100	> 100	> 100	> 100	83	> 100	> 100	> 100	> 100	–	–	–	–
COc1ccc(/C=C2/N=C(N/N=C\C(O)C(O)C(O)CO)NC2=O)cc1 (centres undefined)	> 100	> 100	> 100	> 100	> 100	> 100	> 100	40.1	> 100	> 100	> 100	> 100	> 100	87.7 µM and 33.2 µM	> 100 µM and 41.6 µM	> 100 µM and 48.4 µM	33
C=C1C(=O)OC2C1CCC(=C)C1CC(O)C(=C)C12 (centres undefined)	42.8	54.9	30.6	> 63.1	66.6	5.79	50.3	35.2	58.8	20.9	9.78	21.4	7.99	–	–	–	–
O=Cc1c2c(cc3c1CC1(C3)Cc3cc4c(c(C=O)c3C1)CCCC4)CCCC2	> 31.6	> 31.6	> 31.6	> 31.6	> 100	> 100	> 31.6	> 31.6	> 31.6	> 31.6	> 100	54.1	> 31.6	–	–	–	–
O=[N+]([O-])c1cc(C2(N3CCCCC3)CCCCC2)sc1Br	4.64	28.2	18.7	28.1	27.6	5.24	19.1	17.9	17	15.1	15.6	14.1	11.5	–	–	–	–
